From patent US5578570A, “Method of treating septic shock using thymosin β4” (The George Washington University Medical Center, priority 1994, dated 1996) come the findings set out here.

The assay concerns Rats with Septic Shock. In words: Survival of Sprague-Dawley rats in septic shock model (peritonitis). The conditions noted are these: Table XIV, septic shock + antibiotic (gentamicin sulfate, 1 mg/rat) alone, 10 rats at 0 hr. The format is in vivo. An excerpt: Using a septic shock model in rats (Sprague-Dawley, male, 200-225 g each), the effect of thymosin β4 alone and together with antibiotics was studied. Peritonitis was induced in rats in the following way. A 1-cm incision was made into the peritoneal which exposed the cecum. A tight ligature was placed around the cecum with 4-0 suture distal to the insertion of the small bowel, forming an area of devitalized tissue while maintaining bowel continuity. A puncture wound was made with 16-gauge needle into the anti-mesenteric surface of the cecum and a small amount of fecal contents was expressed through the wound. The cecum was replaced into the peritoneal cavity, and the anterior peritoneal wall and skin were closed with surgical staples. Each animal was given a bolus of normal saline (15 ml/kg) for hydration and allowed to recover overnight.

As to “gentamicin sulfate [antibiotic, reference compound]”, the “Survival of rats (number alive)” value is 1 (24 hr), 1 (48 hr) and 0 (72 hr).
